Target: GLP-1 Receptor (Homo sapiens, UniProt P43220)
Assay: GLP-1R agonist cAMP stimulation assay (HEK293/GLP1R/CRE-LUC cells, Cisbio cAMP dynamic 2 kit)
Type: cell-based
Settings: Table 3, HEK293/GLP1R/CRE-LUC cells, 30 min
Procedure: Activation of GLP-1 receptor is known to stimulate cyclic AMP (cAMP) production in cells which indicates primary coupling to the G as subunit of the G protein heterotrimeric complex.
To optimize functional activity directed toward G as coupling, a HEK293/CRE-Luc cell line developed by HDB stably expressing the GLP-1 Receptor was used. 200× concentration of compound working solutions were prepared (Agilent Technologies Bravo) with ½ log serial dilution in 384-well Echo LDV plate (Labcyte, CatOLP-0200). 50 nL/well 200× concentration of compound working solutions were moved to 384-well white low volume plate (Greiner, Cat4784075) using Labcyte ECH0550.1×10^5 cells/mL HEK293/GLP1R/CRE-LUC (HD Biosciences) cell suspensions prepared with assay buffer (DPBS containing 0.5 mM IBMX (Sigma, Cat15879) and 0.10 BSA (GENVIEW, Cat4FA016-100g)), 10 uL cell suspensions were added to each well of previous generated assay plate which already contains 50 n^1 compound at 200 xconcentration using ThermioFisher Multidrop Combi (1000 cells/well). Seal the plate and incubate at 37 with […] for 30 m.
After incubation the cAMP assay signal was generated using cAMP dynamic 2 Kit (Cisbio). 5 μL cAMP-d2 working solution was added to each well, followed with 5 L Anti-cAMP antibody-cryptate working solution added to each well using ThermoFisher Multidrop Combi. Incubate at room temperature for 1 hour protected from light. Read the fluorescence at 665 and 615 nm with Reader PerkinElmer EnVision. % oActivity=100%×(mean RLU of test sample−mean RLU of vehicle control)/(mean RLU of MAX control−mean RLU of vehicle control)

GLP-1 Receptor, sequence (P43220 24-463, species assumed): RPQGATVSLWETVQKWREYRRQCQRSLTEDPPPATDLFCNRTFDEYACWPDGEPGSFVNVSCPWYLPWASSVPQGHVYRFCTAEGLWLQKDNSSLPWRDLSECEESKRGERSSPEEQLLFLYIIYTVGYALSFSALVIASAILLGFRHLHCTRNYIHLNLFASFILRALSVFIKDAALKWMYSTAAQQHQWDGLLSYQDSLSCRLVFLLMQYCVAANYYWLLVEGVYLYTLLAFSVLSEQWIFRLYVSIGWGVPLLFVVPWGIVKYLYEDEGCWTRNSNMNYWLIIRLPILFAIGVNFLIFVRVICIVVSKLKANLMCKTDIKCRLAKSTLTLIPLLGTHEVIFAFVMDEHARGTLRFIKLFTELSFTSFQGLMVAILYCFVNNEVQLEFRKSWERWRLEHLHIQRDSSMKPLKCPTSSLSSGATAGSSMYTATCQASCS

SMILES	EC50
CCS(=N)(=O)c1ccc(-n2ccn(-c3c4c(nn3-c3cc(C)c(F)c(C)c3)CCN(C(=O)c3cc5cc(C6CCOCC6)ccc5n3[C@@]3(c5noc(=O)[nH]5)C[C@@H]3C)[C@H]4C)c2=O)c(F)c1 (single isomer, unassigned) [Compound 139]	0.062 nM
Cc1cc(-n2nc3c(c2-n2ccn(-c4ccc5c(c4Cl)CN=S5(C)=O)c2=O)[C@H](C)N(C(=O)c2cc4cc([C@H]5CCOC(C)(C)C5)ccc4n2[C@@]2(c4noc(=O)[nH]4)C[C@@H]2C)CC3)cc(C)c1F (single isomer, unassigned) [Compound 202]	0.018 nM
Cc1cc(-n2nc3c(c2-n2ccn(-c4ccc(OC5CCS(=N)(=O)CC5)cc4)c2=O)[C@H](C)N(C(=O)c2cc4cc(C5CCOCC5)ccc4n2[C@@]2(c4noc(=O)[nH]4)C[C@@H]2C)CC3)cc(C)c1F (stereo partly drawn) [Compound 226, 3-((1S,2S)-1-(2-((S)-2-(4-fluoro-3,5-dimethylphenyl)-3-(3-(4-((1-imino-1-oxidohexahydro-1λ^6-thiopyran-4-yl)oxy)phenyl)-2-oxo-2,3-dihydro-1H-imidazol-1-yl)-4-methyl-4,5,6,7-tetrahydro-2H-pyrazolo[4,3-c]pyridine-5-carbonyl)-5-(tetrahydro-2H-pyran-4-yl)-1H-indol-1-yl)-2-methylcyclopropyl)-1,2,4-oxadiazol-5(4H)-one]	0.025 nM
Cc1nnc(C2(n3c(C(=O)N4CCc5nn(-c6cc(C)c(F)c(C)c6)c(-n6ccn(-c7ccc(S8(=O)=NCCC8)cc7)c6=O)c5[C@@H]4C)cc4cc(C5CCOCC5)ccc43)CC2)o1 (single isomer, unassigned) [Compound 156]	1.5 nM
Cc1cc(-n2nc3c(c2-n2ccn(-c4ccc(S(=N)(=O)C5CC5)cc4)c2=O)[C@H](C)N(C(=O)c2cc4cc(C5CCOCC5)ccc4n2[C@@]2(c4noc(=O)[nH]4)C[C@@H]2C)CC3)cc(C)c1F (single isomer, unassigned) [Compound 135]	0.001 nM
Cc1nnc(Cn2c(C(=O)N3CCc4nn(-c5cc(C)c(F)c(C)c5)c(-n5ccn(-c6ccc(S7(=O)=NCCC7)cc6)c5=O)c4[C@@H]3C)cc3cc(C4CCOCC4)ncc32)o1 (single isomer, unassigned) [Compound 159]	5.9 nM
CCN=S(=O)(c1ccc(-n2ccn(-c3c4c(nn3-c3cc(C)c(F)c(C)c3)CCN(C(=O)c3cc5cc([C@H]6CCOC(C)(C)C6)ccc5n3[C@@]3(c5noc(=O)[nH]5)C[C@@H]3C)[C@H]4C)c2=O)c(F)c1)C1CC1 (single isomer, unassigned) [Compound 208]	0.11 nM
Cc1cc(-n2nc3c(c2-n2ccn(-c4ccc(S(C)(=N)=O)cc4)c2=O)[C@H](C)N(C(=O)c2cc4cc(C5CCOCC5)ccn4c2C2(c4noc(=O)[nH]4)CC2)CC3)cc(C)c1F (stereo partly shown) [Compound 107]	0.46 nM
CCS(=N)(=O)c1ccc(-n2ccn(-c3c4c(nn3-c3cc(C)c(F)c(C)c3)CCN(C(=O)c3cc5cc(C6CCOCC6)ccc5n3[C@@]3(c5noc(=O)[nH]5)C[C@@H]3C)[C@H]4C)c2=O)c(F)c1 (single isomer, unassigned) [Compound 138]	0.001 nM
Cc1cc(-n2nc3c(c2-n2ccn(-c4ccc(S(C)(=O)=NC#N)cc4)c2=O)[C@H](C)N(C(=O)c2cc4cc(C5CCOCC5)ccc4n2[C@@]2(c4noc(=O)[nH]4)C[C@@H]2C)CC3)cc(C)c1F (single isomer, unassigned) [Compound 122]	0.046 nM
Cc1cc(-n2nc3c(c2-n2ccn(-c4ccc(S(C)(=N)=O)cc4)c2=O)[C@H](C)N(C(=O)c2cc4cc(C5CCOCC5)ccc4n2[C@@]2(c4noc(=O)[nH]4)C[C@@H]2C)CC3)cc(C)c1F (single isomer, unassigned) [Compound 114]	0.017 nM
Cc1cc(-n2nc3c(c2-n2ccn(-c4ccc(S(C)(=N)=O)nc4)c2=O)[C@H](C)N(C(=O)c2cc4cc(C5CCOCC5)ccc4n2[C@@]2(c4noc(=O)[nH]4)C[C@@H]2C)CC3)cc(C)c1F (stereo partly drawn) [Compound 102, 3-[(1S,2S)-1-(2-{[(4S)-3-(3-{6-[azanylidene(methyl)(oxo)-λ^6-sulfanyl]pyridin-3-yl}-2-oxoimidazol-1-yl)-2-(4-fluoro-3,5-dimethylphenyl)-4-methyl-4,5,6,7-tetrahydropyrazolo[4,3-c]pyridin-5-yl]carbonyl}-5-(3,4,5,6-tetrahydro-2H-pyran-4-yl)indol-1-yl)-2-methylcyclopropyl]-4H,5H-1,2,4-oxadiazol-5-one]	0.17 nM
Cc1cc(-n2nc3c(c2-n2ccn(-c4ccc5c(c4)CCCN=S5(=O)C4CC4)c2=O)[C@H](C)N(C(=O)c2cc4cc([C@H]5CCOC(C)(C)C5)ccc4n2[C@@]2(c4noc(=O)[nH]4)C[C@@H]2C)CC3)cc(C)c1F (single isomer, unassigned) [Compound 212]	0.038 nM
CC[C@H]1C[C@]1(c1noc(=O)[nH]1)n1c(C(=O)N2CCc3nn(-c4cc(C)c(F)c(C)c4)c(-n4ccn(-c5ccc(S(=N)(=O)CC)cc5F)c4=O)c3[C@@H]2C)cc2cc(C3CCOCC3)ccc21 (single isomer, unassigned) [Compound 173]	0.012 nM
Cc1cc(-n2nc3c(c2-n2ccn(-c4ccc5c(c4F)CN=S5(=O)C4CC4)c2=O)[C@H](C)N(C(=O)c2cc4cc([C@H]5CCOC(C)(C)C5)ccc4n2[C@@]2(c4noc(=O)[nH]4)C[C@@H]2C)CC3)cc(C)c1F (single isomer, unassigned) [Compound 191]	0.0096 nM
CN=S1(=O)CCC(Oc2ccc(-n3ccn(-c4c5c(nn4-c4cc(C)c(F)c(C)c4)CCN(C(=O)c4cc6cc(C7CCOCC7)ccc6n4[C@@]4(c6noc(=O)[nH]6)C[C@@H]4C)[C@H]5C)c3=O)c(F)c2C)CC1 (single isomer, unassigned) [Compound 232]	0.037 nM
Cc1cc(-n2nc3c(c2-n2ccn(-c4ccc(S(=N)(=O)CC5CC5)cc4F)c2=O)[C@H](C)N(C(=O)c2cc4cc([C@H]5CCOC(C)(C)C5)ccc4n2[C@@]2(c4noc(=O)[nH]4)C[C@@H]2C)CC3)cc(C)c1F (single isomer, unassigned) [Compound 184]	0.01 nM
CN=S1(=O)CCC(Oc2ccc(-n3ccn(-c4c5c(nn4-c4cc(C)c(F)c(C)c4)CCN(C(=O)c4cc6cc(C7CCOCC7)ccc6n4[C@@]4(c6noc(=O)[nH]6)C[C@@H]4C)[C@H]5C)c3=O)cc2C(F)F)CC1 (single isomer, unassigned) [Compound 234]	0.058 nM
CCS(=O)(=NC)c1ccc(-n2ccn(-c3c4c(nn3-c3cc(C)c(F)c(C)c3)CCN(C(=O)c3cc5cc(C6CCOCC6)ccc5n3CC3CCCO3)[C@H]4C)c2=O)cc1 (stereo partly shown) [Compound 163]	20 nM
CCS(=N)(=O)c1ccc(-n2ccn(-c3c4c(nn3-c3ccc(F)c(C5CC5)c3)CCN(C(=O)c3cc5cc(C6CCOCC6)ccc5n3[C@@]3(c5noc(=O)[nH]5)C[C@@H]3C)[C@H]4C)c2=O)c(F)c1 (single isomer, unassigned) [Compound 166]	0.019 nM
CCS(=N)(=O)c1ccc(-n2ccn(-c3c4c(nn3-c3cc(C)c(F)c(C)c3)CCN(C(=O)c3cc5cc(C6CCOCC6)ccc5n3[C@@]3(c5noc(=O)[nH]5)C[C@@H]3C)[C@H]4C)c2=O)cn1 (single isomer, unassigned) [Compound 140]	0.099 nM
Cc1cc(-n2nc3c(c2-n2ccn(-c4ccc5c(c4)CS(C)(=O)=N5)c2=O)[C@H](C)N(C(=O)c2cc4cc([C@H]5CCOC(C)(C)C5)ccc4n2[C@@]2(c4noc(=O)[nH]4)C[C@@H]2C)CC3)cc(C)c1F (stereo partly drawn) [Compound 227, 5-{3-[(4S)-2-(4-fluoro-3,5-dimethylphenyl)-5-({5-[(4S)-2,2-dimethyl-3,4,5,6-tetrahydro-2H-pyran-4-yl]-1-[(1S,2S)-2-methyl-1-(5-oxo-4H-1,2,4-oxadiazol-3-yl)cyclopropyl]indol-2-yl}carbonyl)-4-methyl-4,5,6,7-tetrahydropyrazolo[4,3-c]pyridin-3-yl]-2-oxoimidazol-1-yl}-2-methyl-3H-2λ^6-benzo[c][1,2]thiazol-2-one]	0.015 nM
Cc1cc(-n2nc3c(c2-n2ccn(-c4ccc5c(c4)CCS5(=N)=O)c2=O)[C@H](C)N(C(=O)c2cc4cc(C5CCOCC5)ccc4n2[C@@]2(c4noc(=O)[nH]4)C[C@@H]2C)CC3)cc(C)c1F (stereo partly drawn) [Compound 101, 3-[(1S,2S)-1-(2-{[(4S)-3-[3-(1-azanylidene-l-oxo-2,3-dihydro-1λ^6-benzo[b]thiophen-5-yl)-2-oxoimidazol-1-yl]-2-(4-fluoro-3,5-dimethylphenyl)-4-methyl-4,5,6,7-tetrahydropyrazolo[4,3-c]pyridin-5-yl]carbonyl}-5-(3,4,5,6-tetrahydro-2H-pyran-4-yl)indol-1-yl)-2-methylcyclopropyl]-4H,5H-1,2,4-oxadiazol-5-one]	0.067 nM
Cc1cc(-n2nc3c(c2-n2ccn(-c4ccc5c(c4F)CN=S5(C)=O)c2=O)[C@H](C)N(C(=O)c2cc4cc([C@H]5CCOC(C)(C)C5)ccc4n2[C@@]2(c4noc(=O)[nH]4)C[C@@H]2C)CC3)cc(C)c1F (single isomer, unassigned) [Compound 188]	0.017 nM
CCS(=N)(=O)c1ccc(-n2ccn(-c3c4c(nn3-c3cc(C)c(F)c(C)c3)CCN(C(=O)c3cc5cc(C6CCOCC6)ccc5n3[C@@]3(c5noc(=O)[nH]5)C[C@@H]3C)[C@H]4C)c2=O)cn1 (single isomer, unassigned) [Compound 141]	0.022 nM

Source: patent US12291529B2, “Heterocyclic GLP-1 agonists” (Gasherbrum Bio, Inc., priority 2023, dated 2025)
